Measurements: paper PMC10924921, “Mi-2β promotes immune evasion in melanoma by activating EZH2 methylation” (Nature Communications, 2024)

Legend:
Test in all cases: biochemical
Parameters in all cases: KINOMEscan active-site competition binding panel (468 kinase assays), per cent of control at 1000 nM
Settings in all cases: KINOMEscan per cent of control (binding competition); read-out: Percent Control
[1] = target: T1, ABL1(Q252H)-nonphosphorylated (Homo sapiens, UniProt P00519, Q252H)
T1 construct: nonphosphorylated
Source text: (§1) Figure S7 / Percent Control

ARK5 = target: T2, ARK5 (Homo sapiens, UniProt O60285)
T2 construct: gene NUAK1
Source text: as §1

BIKE = target: T3, BIKE (Homo sapiens, UniProt Q9NSY1)
T3 construct: gene BMP2K
Source text: as §1

BRSK2 = BRSK2 (Homo sapiens, UniProt Q8IWQ3)
Source text: as §1

CAMK1G = CAMK1G (Homo sapiens, UniProt Q96NX5)
Source text: as §1

EPHB6 = EPHB6 (Homo sapiens, UniProt O15197)
Source text: as §1

FLT3(ITD,F691L) = FLT3(ITD,F691L) (Homo sapiens, UniProt P36888, F691L/ITD)
Source text: as §1

GRK7 = GRK7 (Homo sapiens, UniProt Q8WTQ7)
Source text: as §1

ICK = target: T4, ICK (Homo sapiens, UniProt Q9UPZ9)
T4 construct: gene CILK1
Source text: as §1

IKK-alpha = target: T5, IKK-alpha (Homo sapiens, UniProt O15111)
T5 construct: gene CHUK
Source text: as §1

ITK = ITK (Homo sapiens, UniProt Q08881)
Source text: as §1

MERTK = MERTK (Homo sapiens, UniProt Q12866)
Source text: as §1

MST1 = target: T6, MST1 (Homo sapiens, UniProt Q13043)
T6 construct: gene STK4
Source text: as §1

MST4 = target: T7, MST4 (Homo sapiens, UniProt Q9P289)
T7 construct: gene STK26
Source text: as §1

PAK3 = PAK3 (Homo sapiens, UniProt O75914)
Source text: as §1

PIK3CA(E545K) = PIK3CA(E545K) (Homo sapiens, UniProt P42336, E545K)
Source text: as §1

PIK3CA(H1047Y) = PIK3CA(H1047Y) (Homo sapiens, UniProt P42336, H1047Y)
Source text: as §1

PIK3CA(I800L) = PIK3CA(I800L) (Homo sapiens, UniProt P42336, I800L)
Source text: as §1

PRKCH = PRKCH (Homo sapiens, UniProt P24723)
Source text: as §1

RIPK5 = target: T8, RIPK5 (Homo sapiens, UniProt Q6XUX3)
T8 construct: gene DSTYK
Source text: as §1

[2] = target: T9, RSK4(Kin.Dom.2-C-terminal) (Homo sapiens, UniProt Q9UK32)
T9 construct: gene RPS6KA6; Kin.Dom.2-C-terminal
Source text: as §1

SRPK2 = SRPK2 (Homo sapiens, UniProt P78362)
Source text: as §1

SYK = SYK (Homo sapiens, UniProt P43405)
Source text: as §1

TAK1 = target: T10, TAK1 (Homo sapiens, UniProt O43318)
T10 construct: gene MAP3K7
Source text: as §1

T5 sequence (O15111 whole entry): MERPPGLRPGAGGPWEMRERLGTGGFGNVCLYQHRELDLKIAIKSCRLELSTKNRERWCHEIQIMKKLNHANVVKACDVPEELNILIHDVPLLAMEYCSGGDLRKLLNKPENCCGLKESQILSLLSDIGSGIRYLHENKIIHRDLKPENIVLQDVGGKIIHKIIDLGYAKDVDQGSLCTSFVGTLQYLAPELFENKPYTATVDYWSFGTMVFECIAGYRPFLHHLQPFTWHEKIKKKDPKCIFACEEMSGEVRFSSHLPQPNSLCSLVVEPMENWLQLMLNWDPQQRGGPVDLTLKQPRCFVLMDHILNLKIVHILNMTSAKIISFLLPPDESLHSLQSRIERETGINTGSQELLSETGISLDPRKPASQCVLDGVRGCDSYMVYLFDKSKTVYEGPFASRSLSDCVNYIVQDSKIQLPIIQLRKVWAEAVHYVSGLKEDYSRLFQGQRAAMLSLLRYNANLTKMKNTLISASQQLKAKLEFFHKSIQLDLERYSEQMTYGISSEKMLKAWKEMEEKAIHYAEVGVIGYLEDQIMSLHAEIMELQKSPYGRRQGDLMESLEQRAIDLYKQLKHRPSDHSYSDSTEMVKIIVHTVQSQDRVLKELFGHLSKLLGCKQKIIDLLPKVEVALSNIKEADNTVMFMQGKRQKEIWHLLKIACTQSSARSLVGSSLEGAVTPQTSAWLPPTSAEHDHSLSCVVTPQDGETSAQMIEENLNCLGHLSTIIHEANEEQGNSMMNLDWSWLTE
PIK3CA(H1047Y), sequence (P42336 whole entry H1047Y): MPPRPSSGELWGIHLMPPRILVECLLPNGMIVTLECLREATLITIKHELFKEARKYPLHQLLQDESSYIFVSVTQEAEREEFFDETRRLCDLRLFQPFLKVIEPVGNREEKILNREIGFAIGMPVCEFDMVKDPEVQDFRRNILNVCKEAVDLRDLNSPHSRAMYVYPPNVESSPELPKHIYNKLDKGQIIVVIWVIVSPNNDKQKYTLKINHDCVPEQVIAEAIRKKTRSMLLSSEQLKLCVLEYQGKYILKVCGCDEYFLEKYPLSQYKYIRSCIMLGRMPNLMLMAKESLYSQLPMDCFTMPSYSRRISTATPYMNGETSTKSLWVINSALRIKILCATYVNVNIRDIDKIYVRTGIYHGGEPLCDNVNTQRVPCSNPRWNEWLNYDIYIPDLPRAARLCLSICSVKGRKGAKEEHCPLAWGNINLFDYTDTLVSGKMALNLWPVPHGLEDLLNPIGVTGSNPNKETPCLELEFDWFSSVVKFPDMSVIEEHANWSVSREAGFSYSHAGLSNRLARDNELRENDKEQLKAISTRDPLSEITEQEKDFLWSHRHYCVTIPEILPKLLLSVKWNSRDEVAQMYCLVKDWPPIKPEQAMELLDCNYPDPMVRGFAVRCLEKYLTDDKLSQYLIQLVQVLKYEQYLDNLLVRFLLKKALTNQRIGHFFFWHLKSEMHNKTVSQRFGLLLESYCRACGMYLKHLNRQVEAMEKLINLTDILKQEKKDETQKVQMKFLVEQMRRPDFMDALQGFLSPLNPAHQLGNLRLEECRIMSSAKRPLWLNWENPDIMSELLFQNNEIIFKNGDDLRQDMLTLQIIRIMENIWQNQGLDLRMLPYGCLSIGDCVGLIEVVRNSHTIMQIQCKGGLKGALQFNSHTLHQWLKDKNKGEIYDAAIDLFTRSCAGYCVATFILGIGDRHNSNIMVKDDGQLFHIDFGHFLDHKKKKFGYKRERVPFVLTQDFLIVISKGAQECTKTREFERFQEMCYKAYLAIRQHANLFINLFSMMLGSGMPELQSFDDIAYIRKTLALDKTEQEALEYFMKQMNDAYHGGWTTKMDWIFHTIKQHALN
MERTK, sequence (Q12866 whole entry): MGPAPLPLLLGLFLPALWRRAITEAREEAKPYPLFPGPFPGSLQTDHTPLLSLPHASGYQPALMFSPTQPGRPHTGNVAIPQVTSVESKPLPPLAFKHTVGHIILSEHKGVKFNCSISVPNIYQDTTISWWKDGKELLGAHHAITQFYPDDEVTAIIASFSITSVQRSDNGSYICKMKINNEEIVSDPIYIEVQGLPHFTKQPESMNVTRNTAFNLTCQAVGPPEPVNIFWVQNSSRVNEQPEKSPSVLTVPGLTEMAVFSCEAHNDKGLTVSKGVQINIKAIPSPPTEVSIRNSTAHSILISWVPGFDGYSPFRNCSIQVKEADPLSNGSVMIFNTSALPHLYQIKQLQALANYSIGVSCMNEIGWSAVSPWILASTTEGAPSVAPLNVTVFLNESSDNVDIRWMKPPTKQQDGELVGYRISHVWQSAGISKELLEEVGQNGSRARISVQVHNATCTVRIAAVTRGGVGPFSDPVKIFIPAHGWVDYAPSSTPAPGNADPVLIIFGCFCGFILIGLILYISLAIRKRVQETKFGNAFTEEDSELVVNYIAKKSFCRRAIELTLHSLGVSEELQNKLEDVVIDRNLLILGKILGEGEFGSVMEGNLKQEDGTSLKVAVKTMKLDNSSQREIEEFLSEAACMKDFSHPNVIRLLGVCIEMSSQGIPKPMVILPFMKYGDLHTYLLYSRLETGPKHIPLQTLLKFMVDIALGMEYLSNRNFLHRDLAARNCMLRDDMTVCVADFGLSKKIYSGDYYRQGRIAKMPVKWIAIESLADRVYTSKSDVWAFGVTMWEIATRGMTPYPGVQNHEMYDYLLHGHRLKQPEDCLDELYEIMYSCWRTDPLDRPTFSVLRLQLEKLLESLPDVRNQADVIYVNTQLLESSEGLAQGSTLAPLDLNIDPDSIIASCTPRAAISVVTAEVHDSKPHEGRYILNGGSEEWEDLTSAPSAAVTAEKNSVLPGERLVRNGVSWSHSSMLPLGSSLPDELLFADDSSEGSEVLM
EPHB6, sequence (O15197 whole entry): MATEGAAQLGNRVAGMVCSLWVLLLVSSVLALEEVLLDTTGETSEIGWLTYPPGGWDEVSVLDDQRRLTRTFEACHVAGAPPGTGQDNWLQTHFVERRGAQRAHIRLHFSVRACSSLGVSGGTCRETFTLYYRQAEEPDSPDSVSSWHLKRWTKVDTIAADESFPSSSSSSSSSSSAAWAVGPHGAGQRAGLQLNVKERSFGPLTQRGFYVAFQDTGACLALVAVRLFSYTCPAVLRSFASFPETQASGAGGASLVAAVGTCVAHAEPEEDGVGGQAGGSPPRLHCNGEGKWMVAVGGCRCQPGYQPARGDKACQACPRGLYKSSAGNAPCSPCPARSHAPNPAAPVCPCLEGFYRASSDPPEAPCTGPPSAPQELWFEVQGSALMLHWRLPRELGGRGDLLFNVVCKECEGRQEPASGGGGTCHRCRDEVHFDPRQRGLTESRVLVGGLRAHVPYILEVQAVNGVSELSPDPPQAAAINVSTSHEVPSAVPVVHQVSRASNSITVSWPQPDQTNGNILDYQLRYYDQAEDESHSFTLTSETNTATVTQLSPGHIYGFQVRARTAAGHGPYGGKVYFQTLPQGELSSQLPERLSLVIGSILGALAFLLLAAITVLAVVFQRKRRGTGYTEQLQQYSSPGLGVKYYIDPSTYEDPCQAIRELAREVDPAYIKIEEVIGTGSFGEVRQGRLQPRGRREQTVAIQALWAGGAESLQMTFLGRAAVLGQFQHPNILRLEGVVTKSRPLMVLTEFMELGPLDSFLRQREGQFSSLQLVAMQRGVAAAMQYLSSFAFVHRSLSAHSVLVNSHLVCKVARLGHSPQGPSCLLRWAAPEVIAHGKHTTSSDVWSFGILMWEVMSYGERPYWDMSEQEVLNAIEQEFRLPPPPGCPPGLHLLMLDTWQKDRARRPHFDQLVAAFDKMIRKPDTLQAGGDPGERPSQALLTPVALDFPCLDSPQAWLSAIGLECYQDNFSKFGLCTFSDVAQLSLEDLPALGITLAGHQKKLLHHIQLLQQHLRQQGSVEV
T4 sequence (Q9UPZ9 whole entry): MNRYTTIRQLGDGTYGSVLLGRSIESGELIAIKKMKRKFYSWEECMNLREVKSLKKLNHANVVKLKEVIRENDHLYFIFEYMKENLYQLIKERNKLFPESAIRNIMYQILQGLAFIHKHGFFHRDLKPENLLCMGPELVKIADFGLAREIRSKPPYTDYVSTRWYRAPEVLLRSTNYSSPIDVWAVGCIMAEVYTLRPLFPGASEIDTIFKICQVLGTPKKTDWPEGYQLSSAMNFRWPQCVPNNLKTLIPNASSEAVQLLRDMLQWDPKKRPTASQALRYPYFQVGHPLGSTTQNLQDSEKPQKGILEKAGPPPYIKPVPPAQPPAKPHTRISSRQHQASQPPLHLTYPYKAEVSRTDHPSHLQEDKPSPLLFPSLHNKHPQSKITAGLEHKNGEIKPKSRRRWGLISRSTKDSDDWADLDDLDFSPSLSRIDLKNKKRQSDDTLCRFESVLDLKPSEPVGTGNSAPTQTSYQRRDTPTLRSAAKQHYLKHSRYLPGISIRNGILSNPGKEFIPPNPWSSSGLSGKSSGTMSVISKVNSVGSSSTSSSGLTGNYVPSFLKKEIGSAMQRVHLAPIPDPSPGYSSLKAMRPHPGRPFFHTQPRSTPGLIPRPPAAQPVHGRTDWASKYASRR
CAMK1G, sequence (Q96NX5 whole entry): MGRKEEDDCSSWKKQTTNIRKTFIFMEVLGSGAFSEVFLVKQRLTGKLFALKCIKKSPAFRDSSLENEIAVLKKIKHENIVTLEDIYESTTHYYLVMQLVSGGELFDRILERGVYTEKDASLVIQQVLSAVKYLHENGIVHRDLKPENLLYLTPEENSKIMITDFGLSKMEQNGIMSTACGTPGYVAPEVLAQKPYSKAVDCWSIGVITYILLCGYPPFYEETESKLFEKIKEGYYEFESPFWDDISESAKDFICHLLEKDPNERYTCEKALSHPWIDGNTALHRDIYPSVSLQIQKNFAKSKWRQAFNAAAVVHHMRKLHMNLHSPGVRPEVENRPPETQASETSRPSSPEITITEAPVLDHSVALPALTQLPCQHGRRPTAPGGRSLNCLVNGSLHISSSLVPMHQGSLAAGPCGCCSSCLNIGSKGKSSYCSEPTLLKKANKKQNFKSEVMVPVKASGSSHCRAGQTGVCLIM
PIK3CA(E545K), sequence (P42336 whole entry E545K): as the sequence (P42336 whole entry H1047Y) above, with E545K, Y1047H counted along it
PIK3CA(I800L), sequence (P42336 whole entry I800L): as the sequence (P42336 whole entry H1047Y) above, with I800L, Y1047H counted along it

`Cn1c(=O)[nH]c2ccc(-c3cccc(C(=O)NC4CCn5ccnc5C4)c3)cc21` (stereo not drawn) [Z36-MP5] was tested, and the remaining binding at 1 µM [1] was 84%, the remaining binding at 1 µM (ARK5) was 98% and the remaining binding at 1 µM (BIKE) was 100%. It also gave a remaining binding at 1 µM (BRSK2) of 100%, a remaining binding at 1 µM (CAMK1G) of 99% and a remaining binding at 1 µM (EPHB6) of 81%. It also gave a remaining binding at 1 µM (FLT3(ITD,F691L)) of 57%, a remaining binding at 1 µM (GRK7) of 90% and a remaining binding at 1 µM (ICK) of 100%. It also gave a remaining binding at 1 µM (IKK-alpha) of 80%, a remaining binding at 1 µM (ITK) of 96% and a remaining binding at 1 µM (MERTK) of 70%. For the same molecule, the remaining binding at 1 µM (MST1) was 84%, the remaining binding at 1 µM (MST4) was 82% and the remaining binding at 1 µM (PAK3) was 71%. The remaining binding at 1 µM (PIK3CA(E545K)) was 48%, the remaining binding at 1 µM (PIK3CA(H1047Y)) was 91% and the remaining binding at 1 µM (PIK3CA(I800L)) was 94%. It also gave a remaining binding at 1 µM (PRKCH) of 52%, a remaining binding at 1 µM (RIPK5) of 54% and a remaining binding at 1 µM [2] of 82%. It also gave a remaining binding at 1 µM (SRPK2) of 63%, a remaining binding at 1 µM (SYK) of 57% and a remaining binding at 1 µM (TAK1) of 84%.
